# Test system: RHE tissues
# Assay: RHE irritation assessment Method 1: SkinEthic Skin Irritation Test-42 bis assay (MTT), plus 24 h contact time
# Format: cell-based, human
# Details: 42 min and 24 h exposure; 5 and 1% w/v α-H-G, 10 and 1% w/v L-h-S in water
# Text: The purpose of this experiment was to investigate the potential of alpha-hydroxyglycine (α-H-G) and L-homoserine (L-h-S) to cause skin irritation. The method was based on the validated SOP for the “The SkinEthic Skin Irritation Test-42 bis assay” in accordance to OECD guideline Test No. 439: In Vitro Skin Irritation. The protocol is provided in Section 1.2. Further details on the method can be found in the SkinEthic™ RHE SOP, Version 2.1 (July 2009), SkinEthic skin irritation test-42 bis test method for the prediction of acute skin irritation of chemicals: 42 minutes application+42 hours post-incubation. Available at: [http://ecvam.jrc.ec.europa.eu].
# In addition, a further experiment was performed where the contact time of the test solution with the tissue was increased to 24 h. Following which point an MTT assay was used to determine the tissue viability and the test solutions potential to cause irritation.
# The following steps were completed on receipt of the tissues: • (i) Wells of 6-well plates were filled with 1 mL growth culture medium. • (ii) Tissue were removed from their packaging, cleaned to remove the transport agarose and inspected for signs of damage; damaged tissues were discarded. • (iii) The tissue were transferred into the growth culture medium then incubated at 37° C., 5% CO2 until application of the test solution.
# 1.2.1.1.6 Applications of 5 and 1% w/v α-H-G and 10 and 1% w/v L-h-S and Controls • (i) 16 μL±0.5 μL of the test solutions (5% w/v α-hydroxyglycine (α-H-G) in water, 1% w/v α-hydroxyglycine (α-H-G) in water, 10% w/v L-homoserine (L-h-S) in water, 1% w/v L-homoserine (L-h-S) in water) and negative (PBS) and positive (5% SDS) controls were dispensed onto the top of the epidermal tissue, using positive displacement pipette. […]
structure (smiles),measurement,value
N[C@@H](CCO)C(=O)O [L-homoserine],skin irritation potential (viability below 50% of negative control = irritant),non-irritants
